The values that follow come from patent US11827628B2, “Compositions and methods for inhibition of the JAK pathway” (Rigel Pharmaceuticals, Inc., priority 2005, dated 2023).

For this test, the system named is up-regulation of ICAM-1 (CD54) by IFNγ in U937 human monocytic cells. The experiment in a line: U937 IFNγ ICAM1 FACS Assay. The class given is cell-based. The settings on record: U937 cells stimulated with IFNγ; ICAM-1 expression by FACS; read-out: IC50, Example 44. The method, boiled down: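 U937 cells in 10% FCS RPMI were preincubated 30 min at 37 °C with an 8-point, 3-fold compound dilution series in duplicate, then stimulated with IFNγ for 18–24 h. Surface ICAM-1 was stained with APC anti-ICAM-1 and read by flow cytometry as geometric mean on live-gated cells. EC50 was derived.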

Structures are written as SMILES.

As to `Cc1ccc(Nc2ncc(F)c(Nc3ccc4c(c3)CCN4S(C)(=O)=O)n2)cc1S(N)(=O)=O` [VII-61, N2-(3-Aminosulfonyl-4-methylphenyl)-5-fluoro-N4-[4-(1-methylsulfonyl)indolin-5-yl]-2,4-pyrimidinediamine], the IC50 amounted to 356 nM.
